Read-outs that look alike come from different tables or passages of the source.
How the values were obtained:
Shattercane (SHCA) = format: in vivo; details: […]
Velvetleaf (VELE) [1] = format: in vivo, Abutilon theophrasti; details: […]
Giant foxtail (GIFT) = assay: whole plant or invertebrate; format: in vivo
Velvetleaf (VELE) [2] = assay: whole plant or invertebrate; format: in vivo, Abutilon theophrasti
Corn [3] = details: […]
Corn [4] = test system: Corn
[5] = observed 8 days later (Table 32)
[6] = observed 8 days later (Table 33)
[7] = […], PPI, 14 days after PPI (Table 34)
[8] = observed 7 days after POE (Table 35)
[9] = observed 7 days after POE (Table 36)
[10] = antidote number given but rate '-' (Table 33)
[11] = […], antidote number given but rate '-', 14 days after PPI (Table 34)
[12] = observed 9 days later (Table 29)
[13] = observed 9 days later (Table 30)
[14] = […], PPI, 13 days after PPI (Table 31)

Row | Structure (SMILES) | % Inhibition SHCA (Shattercane (SHCA); [8]) [%] | % Inhibition SHCA (Shattercane (SHCA); [9]) [%] | % Inhibition VELE (Velvetleaf (VELE) [1]; [8]) [%] | % Inhibition VELE (Velvetleaf (VELE) [1]; [9]) [%] | % Inhibition GIFT (Giant foxtail (GIFT); in vivo) [%] | % Inhibition VELE (Velvetleaf (VELE) [2]; in vivo) [%] | % Inhibition Corn (Corn [3]; [8]) [%] | % Inhibition Corn (Corn [3]; [9]) [%] | % Inhibition Corn (Corn [4]; in vivo) [%] | further results
1 | CCCOC(=O)COC(c1ccccc1)c1ccccc1 [compound 47] | – | – | – | – | – | – | – | – | – | % Inhibition SHCA (Shattercane (SHCA); [5]): 75%; % Inhibition SHCA (Shattercane (SHCA); [6]): 30%; % Inhibition VELE (Velvetleaf (VELE) [1]; [5]): 85%; % Inhibition VELE (Velvetleaf (VELE) [1]; [6]): 75%; % Inhibition GIFT (Giant foxtail (GIFT); [7]): 65%; % Inhibition VELE (Velvetleaf (VELE) [2]; [7]): 85%; % Inhibition Corn (Corn [3]; [5]): 25%; % Inhibition Corn (Corn [3]; [6]): 50%; % Inhibition Corn (Corn [4]; [7]): 60%
2 | O=C(Oc1ccccc1)c1sc(Cl)nc1C(F)(F)F [compound 64] | 65 | 35 | 75 | 70 | 70 | 90 | 20 | 60 | 60 | –
3 | O=C(O)c1sc(Cl)nc1C(F)(F)F [compound 65] | 70 | 30 | 80 | 65 | 70 | 90 | 25 | 50 | 45 | –
4 | [O-][n+]1ccccc1Sc1nc(Cl)c(Cl)c(Cl)c1Cl [compound 70] | 70 | 25 | 90 | 85 | 70 | 95 | 70 | 65 | 75 | –
5 | CC(C)(C#N)OC(=O)COC(c1ccccc1)c1ccccc1 [compound 59] | – | – | – | – | – | – | – | – | – | % Inhibition SHCA (Shattercane (SHCA); [10]): 0%; % Inhibition SHCA (Shattercane (SHCA); [5]): 80%; % Inhibition VELE (Velvetleaf (VELE) [1]; [10]): 0%; % Inhibition VELE (Velvetleaf (VELE) [1]; [5]): 85%; % Inhibition GIFT (Giant foxtail (GIFT); [11]): 30%; % Inhibition VELE (Velvetleaf (VELE) [2]; [11]): 20%; % Inhibition Corn (Corn [3]; [10]): 0%; % Inhibition Corn (Corn [3]; [5]): 15%; % Inhibition Corn (Corn [4]; [11]): 0%
6 | COC(=O)ON=C(N)COc1cccc2cccnc12 [compound 76] | 65 | 30 | 80 | 70 | 70 | 90 | 55 | 55 | 65 | –
7 | O=C(C(Cl)Cl)N1CCN(C(=O)C(Cl)Cl)CC1 [compound 3] | – | – | – | – | – | – | – | – | – | % Inhibition SHCA (Shattercane (SHCA); [12]): 70%; % Inhibition SHCA (Shattercane (SHCA); [13]): 40%; % Inhibition VELE (Velvetleaf (VELE) [1]; [12]): 95%; % Inhibition VELE (Velvetleaf (VELE) [1]; [13]): 70%; % Inhibition GIFT (Giant foxtail (GIFT); [14]): 75%; % Inhibition VELE (Velvetleaf (VELE) [2]; [14]): 95%; % Inhibition Corn (Corn [3]; [12]): 35%; % Inhibition Corn (Corn [3]; [13]): 60%; % Inhibition Corn (Corn [4]; [14]): 55%

Source: EP0565593B1, “REDUCING PESTICIDAL INTERACTIONS IN CROPS” (priority 1990, dated 1992)
